The results in this text go back to patent US12275721B2, “Indazole carboxamides as kinase inhibitors” (BRISTOL-MYERS SQUIBB COMPANY, priority 2019, dated 2025).

This test has as its system MLKL phosphorylation in HT29-L23 human colorectal adenocarcinoma cells. The test can be described thus: MLKL Phosphorylation High-Content Assay. The format is cell-based. The settings on record: Homo sapiens, necroptosis induced with TNFα, SMAC mimetic and Z-VAD, 6 h, read-out: pMLKL (IC50). On the procedure: MLKL Phosphorylation High-Content Assay
HT29-L23 human colorectal adenocarcinoma cells were maintained in RPMI 1640 medium containing 10% heat-inactivated FBS, 1% Penicillin-Streptomycin and 10 mM HEPES. Cells were seeded at 2,000 cells/well in 384 well tissue culture-treated microplates (Greiner #781090-3B) and incubated at 37° C. (5% CO2/95% O2) for 2 d. On the day of the assay, the cells were treated with test compounds at final concentrations of 6.25 to 0.106 μM for 30 min at 37° C. (5% CO2/95% O2). Necroptopsis was induced using a mixture of human TNFα (35 ng/mL) (Peprotech #300-01A), SMAC mimetic (from US 2015/0322111 A1) (700 nM) and Z-VAD (140 nM) (BD pharmingen #51-6936). Following 6 h incubation at 37° C. (5% CO2/95% O2), the cells were fixed with 4% formaldehyde (ACROS 11969-0010) for 15 min at rt, then permeabilized with phosphate buffered saline (PBS) containing 0.2% Triton-X-100 for 10 min. MLKL phosphorylation was detected using anti-MLKL (phospho S358) antibody (Abcam #ab187091) (1:1000 dilution in Blocking Buffer [PBS supplemented with 0.1% BSA]) with ON incubation at 4° C. After washing three times in PBS, goat anti-rabbit Alexa-488 (1:1000 dilution) (Life Technologies, A1 1008) and Hoechst 33342 (Life Technologies, H3570) (1:2000 dilution) in Blocking Buffer were added for 1 h at rt. Following another three cycles of washes in PBS, the microplates were sealed, and cellular images were acquired in the Cellomics ArrayScan VTI high-content imager equipped with an X1 camera. Fluorescent images were taken using a 10× objective and the 386-23 BGRFRN_BGRFRN and 485-20 BGRFRN_BGRFRN filter sets, for nuclei and MLKL phosphorylation, respectively. The image sets were analyzed using the Compartmental Analysis Bioapplication software (Cellomics). The level of MLKL phosphorylation was quantified as MEAN_CircRingAvglntenRatio. The maximal inhibitory response was defined by the activity induced by Necls (CAS #: 852391-15-2, 6.25 μm). The IC50 value was defined as the concentration of compound that produces 50% of the maximal inhibition. The data were fitted using the 4-parameter logistic equation to calculate the IC50 and Ymax values.

`CNC(=O)c1n[nH]c2cc(-c3cc(C(=O)NC(C)CCc4ccccc4)n(C)n3)ccc12` (racemic) [Example 36, N-methyl-6-(1-methyl-5-((4-phenylbutan-2-yl)carbamoyl)-1H-pyrazol-3-yl)-1H-indazole-3-carboxamide]: the IC50 (in general, the midpoint of a concentration-inhibition curve) amounted to 0.6 µM.

On to `CC(C)NC(=O)c1n[nH]c2cc(-c3ccc(C(=O)NCC[C@H](O)c4ccc(Cl)cc4)s3)ccc12` [Example 9, (S)-6-(5-((3-(4-chlorophenyl)-3-hydroxypropyl)carbamoyl)thiophen-2-yl)-N-isopropyl-1H-indazole-3-carboxamide], for which the half-inhibitory concentration (IC50) is 0.5 µM.
